Assay results reported in BindingDB's records for doi:10.1021/acschembio.6b00217 (Broad Institute, 2016).

molecular target: Serine/threonine-protein kinase SIK2 (Homo sapiens, UniProt Q9H0K1); assay: Caliper-based Mobility Shift Assay; settings: pH 8
Protocol: IC50‘s for HG-9-91-01 derivatives were measured by Caliper-based mobility shift assay (PerkinElmer). […] Reactions were quenched by adding 20 mM EDTA (pH 8) after 1 hr, and percentage of substrate conversion was measured by LabChip EZ Reader II (PerkinElmer).

Serine/threonine-protein kinase SIK2, sequence (Q9H0K1 whole entry): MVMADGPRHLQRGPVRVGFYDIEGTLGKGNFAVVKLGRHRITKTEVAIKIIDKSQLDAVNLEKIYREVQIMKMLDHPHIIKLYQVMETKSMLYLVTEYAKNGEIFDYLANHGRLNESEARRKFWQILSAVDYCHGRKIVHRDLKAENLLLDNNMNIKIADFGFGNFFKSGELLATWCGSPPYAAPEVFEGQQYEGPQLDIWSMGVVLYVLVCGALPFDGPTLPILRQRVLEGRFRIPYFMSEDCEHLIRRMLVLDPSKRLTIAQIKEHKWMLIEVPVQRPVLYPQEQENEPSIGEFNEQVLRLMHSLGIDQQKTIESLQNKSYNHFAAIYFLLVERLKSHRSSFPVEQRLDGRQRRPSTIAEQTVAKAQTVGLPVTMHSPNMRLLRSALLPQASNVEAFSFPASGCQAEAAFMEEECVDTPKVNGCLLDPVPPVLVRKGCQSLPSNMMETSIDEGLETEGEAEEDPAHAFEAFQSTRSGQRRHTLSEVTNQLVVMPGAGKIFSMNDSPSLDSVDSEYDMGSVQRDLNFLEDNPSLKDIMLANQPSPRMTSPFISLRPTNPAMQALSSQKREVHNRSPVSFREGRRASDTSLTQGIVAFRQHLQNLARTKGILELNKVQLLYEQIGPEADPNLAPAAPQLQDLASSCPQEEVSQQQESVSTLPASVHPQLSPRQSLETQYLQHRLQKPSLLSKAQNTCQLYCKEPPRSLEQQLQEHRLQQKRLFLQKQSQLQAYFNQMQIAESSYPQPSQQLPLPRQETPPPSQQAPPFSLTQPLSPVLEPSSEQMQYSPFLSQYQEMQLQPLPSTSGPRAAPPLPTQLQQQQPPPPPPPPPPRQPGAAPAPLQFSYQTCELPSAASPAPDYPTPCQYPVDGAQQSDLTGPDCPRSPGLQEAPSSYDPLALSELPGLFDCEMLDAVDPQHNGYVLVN

Going from `COc1ccc(N2C(=O)N(c3c(C)cccc3C)Cc3cnc(Nc4ccc(C5CCN(C)CC5)cc4OC(C)C)nc32)nc1` [HG-9-91-01 derivative, 7] to `CCOc1cc(C2CCN(C)CC2)ccc1Nc1ncc2c(n1)N(c1ccc(OC)cn1)C(=O)N(c1c(C)cccc1Cl)C2` [HG-9-91-01 derivative, 6], the IC50 falls from over 7000 nM to 150 nM. The second is the more potent here.

First: COc1ccc(N2C(=O)N(c3c(C)cccc3Cl)Cc3cnc(Nc4ccc(N5CCN(C)CC5)cc4)nc32)nc1 [YKL-05-095 (3)]
Second: COc1ccc(N2C(=O)N(c3c(C)cccc3Cl)Cc3cnc(Nc4ccc(N5CCN(C)CC5)cc4OC)nc32)nc1 [YKL-05-096 (4)]
The IC50 of the first is 5.7-fold lower: 6 nM for the first, 34 nM for the second.
